SMILES strings stand for the structures.

The test system of test [1] is primary clear cell ovarian tumour cultures with (VOA4841) and without (XVOA295) ARID1A expression. Briefly: colony formation / dose response, primary clear cell ovarian tumour cultures. Type of test: cell-based, human. The method, then: FIG. 71 illustrates the HDAC6 inhibitor ACY1215 dose response curves of primary clear cell ovarian tumour cultures with (VOA4841) and without (XVOA295) ARID1A expression; n=3 independent experiments.
Cell lines and 3D culture conditions. The protocol for using primary cultures of human ovarian clear cell tumour cells was approved by the University of British Columbia Institutional Review Board. The primary tumour cells were cultured in RPMI 1640 supplemented with 10% fetal bovine serum (FBS) and 1% penicillin/streptomycin. Ovarian clear cell carcinoma cell lines (TOV21G, OVTOKO, OVISE and RMG1) were purchased from JCRB (Japanese Collection of Research Bioresources) Cell Bank. TOV21G, OVTOKO, and OVISE cells were cultured in RPMI 1640 supplemented with 10% fetal bovine serum (FBS) and 1% penicillin/streptomycin. RMG1 cells were cultured in 1:1 Dulbecco's modified Eagle's medium (DMEM):F12 supplemented with 10% FBS. Viral packaging cells were cultured in DMEM supplemented with 10% FBS at 37° C. supplied with 5% CO2. Cells lines are authenticated at The Wistar Institute's Genomics Facility using short tandem repeat DNA profiling. Regular Mycoplasma testing was performed using LookOut Mycoplasma PCR detection (Sigma-Aldrich Co.). […]
Colony formation assays were performed as follows. […] Integrated density was measured using NIH ImageJ software.

Test [2] deals with cells derived from Apc−/−/Pten−/−/Arid1a−/− and Apc−/−/Pten−/− tumours. Briefly: ACY1215 sensitivity of cells derived from mouse endometrioid tumours. The class given is cell-based.
Test [3] relates to ARID1A-mutated TOV21G tumors. Briefly: intrabursal orthotopic xenograft, ARID1A-mutated TOV21G. The class given is in vivo, mice. The text has this: Luciferase-expressing ARID1A-mutated TOV21G cells were orthotopically transplanted into the ovarian bursa sac of SCID/nude female mice. Tumors were allowed to establish for 14 days before randomized into two groups (n=6/group).
During treatment at indicated time interval mice were imaged based on luciferase expression to monitor tumor growth. Total flux (photons/sec) is graphed. *p=0.0313.
ARID1A-mutated TOV21G cells were orthotopically transplanted into the ovarian bursa sac of SCID/nude female mice. Tumors were allowed to establish for 2 weeks before the mice were randomized into two different treatment groups (n=5/group). […] After stopping the treatment, the mice from the indicated groups were followed for survival. Shown is the Kaplan-Meier survival curves for ACY1215 or vehicle control treated mice. The p-value was calculated by log-rank test.
The number of disseminated tumor nodules in peritoneal cavity was quantified.
Histological score (H-score) was calculated for 5 separate fields from 6 tumors from 6 individual mice from each of the indicated groups. Error bars represent S.E.M. The p-value was calculated via two-tailed t-test.
Immunofluorescence and immunohistochemical staining was performed as follows. Immunofluorescence was performed after 48 hours as indicated by fixing samples in 4% paraformaldehyde and permeabilizing with 0.5% Triton-X. Samples were incubated with primary antibodies for 2 hours at room temperature, highly cross absorbed secondary antibodies (Invitrogen) for 1 hour at room temperature and mounted with prolong anti-fade reagent (Invitrogen). Immuno-stained cells were imaged using a Leica Confocal microscope. […] Bitler et al. Nat. Med. 2015, 21, 231-238; Bitler et al. Cancer Research 2011, 71, 6184-6194. Expression of the stained markers was scored using a histologic score (H score) as previously described. McCarty, Jr. et al. Cancer research 1986, 46, 4244s-4248s.
The intrabursal orthotopic xenograft in vivo model was performed as described previously (Bitler et al. Nat. Med. 2015, 21, 231-238; Bitler et al. Cancer Research 2011, 71, 6184-6194). The protocols were approved by the Institutional Animal Care and Use Committee (IACUC). Briefly, 1×10^6 luciferase-expressing TOV-21G or RMG1 cells were unilaterally injected into the ovarian bursa sac of immunocompromised mice (n=6 per group). Two weeks after injection, tumors were visualized by injecting luciferin (intraperitoneal (i.p.): 4 mg/mice) resuspended in PBS and imaged with an In Vivo Imaging System (IVIS). […] Images were analyzed using Live Imaging 4.0 software. At end of the experiments, tumors were surgically dissected and tumor burden was calculated based on tumor weight. Intraperitoneally disseminated tumor nodules were quantified.
Seidel et al. Epigenomics 2015, 7, 103-118. […] Santo et al. Blood 2012, 119, 2579-2589. To determine the effects of HDAC6 inhibition in vivo on the growth of ARID1A-mutated tumors, luciferase-expressing ARID1A-mutated TOV21G cells were orthotopically transplanted into the bursa-sac covering the ovary of immunocompromised nude mice to mimic the tumor microenvironment. The injected ARID1A wild-type or mutant cells were allowed to grow for 2 weeks to establish the orthotopic tumors.

[4] abbreviates: dissected ARID1A-mutated tumors.

Turning to `O=C(CCCCCCNC(=O)c1cnc(N(c2ccccc2)c2ccccc2)nc1)NO` [rocilinostat, 2-(diphenylamino)-N-(7-(hydroxyamino)-7-oxoheptyl)pyrimidine-5-carboxamide], in test [1], the “IC50 values in primary cells” value is on record as “comparable to those observed in cell lines” and the “sensitivity of cultures without ARID1A expression compared to those with ARID1A expression” value is on record as “more sensitive”. In addition, in test [2], the “sensitivity of Apc−/−/Pten−/−/Arid1a−/− tumour cells compared with Apc−/−/Pten−/− tumour cells” value was “more sensitive”. The “growth of ARID1A-mutated tumors (luciferase total flux)” value in test [3] (50 mg/kg daily i.p., 21 days) was “significantly inhibited the growth”. Further, in test [3] (50 mg/kg daily, 3 weeks), the “number of tumor nodules in peritoneal cavity” value is reported as “significant decrease in the number of tumor nodules” and the “tumor burden (tumor weight)” value is recorded as “significantly reduced the burden”. Besides, the “survival of mice bearing ARID1A-mutated tumors” value in test [3] (50 mg/kg daily, 3 weeks, followed after stopping treatment) is given as “significantly improved the survival”. Besides, in test [3] (50 mg/kg daily, 3 weeks, vehicle control 35 days, p=0.0023), the median survival turned out to be 51 days. For the same molecule, in test [3] (setting [4]), the “HDAC6 expression (IHC)” value was “not affected”, the “apoptotic marker cleaved caspase 3 (IHC H-score)” value is listed as “increased”, the “cell proliferation marker Ki67 (IHC H-score)” value is listed as “significantly decreased” and the “p53K120Ac staining (IHC)” value is given as “significantly increased”.

The values above are taken from US20190192521A1, “Methods of Treating Arid1A-Mutated Cancers With HDAC6 Inhibitors and EZH2 Inhibitors” (The Wistar Institute of Anatomy and Biology, priority 2016, published 2019).
